ChEMBL document CHEMBL4376804, “Review of Transient Receptor Potential Canonical (TRPC5) Channel Modulators and Diseases” (J Med Chem, 2019)

How the values were obtained:
Assay type in all cases: cell-based
[1] = target: T1, Short transient receptor potential channel 5 (Mus musculus, UniProt Q9QX29); assay: Inhibition of mouse TRPC5 expressed in thapsigargin treated HEK293/TREx cells assessed as reduction in intracellular calcium level in presence of GPCR agonist by fluorescence method
T1 sequence (Q9QX29 whole entry): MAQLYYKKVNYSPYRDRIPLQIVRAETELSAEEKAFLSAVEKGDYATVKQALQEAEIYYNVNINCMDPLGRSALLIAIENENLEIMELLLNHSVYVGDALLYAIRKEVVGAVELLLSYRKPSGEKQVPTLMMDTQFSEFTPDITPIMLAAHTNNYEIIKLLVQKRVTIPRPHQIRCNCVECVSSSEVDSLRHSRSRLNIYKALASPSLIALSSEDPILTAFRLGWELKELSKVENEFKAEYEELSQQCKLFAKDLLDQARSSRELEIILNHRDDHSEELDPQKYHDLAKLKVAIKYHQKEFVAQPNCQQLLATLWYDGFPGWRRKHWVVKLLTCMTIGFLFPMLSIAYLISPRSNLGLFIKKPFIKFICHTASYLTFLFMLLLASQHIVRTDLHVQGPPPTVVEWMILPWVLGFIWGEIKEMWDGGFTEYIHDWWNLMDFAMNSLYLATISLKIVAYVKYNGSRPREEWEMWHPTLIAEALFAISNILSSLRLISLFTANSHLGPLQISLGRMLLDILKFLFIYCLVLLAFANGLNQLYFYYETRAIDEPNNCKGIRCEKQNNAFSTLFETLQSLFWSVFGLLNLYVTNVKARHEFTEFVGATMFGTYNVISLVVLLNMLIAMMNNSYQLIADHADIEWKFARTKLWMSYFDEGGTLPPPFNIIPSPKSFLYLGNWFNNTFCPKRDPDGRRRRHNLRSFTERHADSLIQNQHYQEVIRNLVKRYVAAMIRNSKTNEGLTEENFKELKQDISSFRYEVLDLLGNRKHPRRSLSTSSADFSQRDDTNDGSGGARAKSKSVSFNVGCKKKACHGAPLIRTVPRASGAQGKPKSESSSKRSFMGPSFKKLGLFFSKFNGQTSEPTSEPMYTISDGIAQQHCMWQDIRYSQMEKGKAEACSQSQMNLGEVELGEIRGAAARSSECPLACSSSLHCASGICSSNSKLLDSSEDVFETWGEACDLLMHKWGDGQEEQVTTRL

[2] = target: Transient receptor potential cation channel subfamily V member 4 (Mus musculus, UniProt Q9EPK8); assay: Inhibition of YFP-tagged mouse TRPV4 expressed in HEK293 cells assessed as reduction in calcium level by fluo-4 dye based fluorescence assay
Chain of Transient receptor potential cation channel subfamily V member 4 (Q9EPK8 whole entry): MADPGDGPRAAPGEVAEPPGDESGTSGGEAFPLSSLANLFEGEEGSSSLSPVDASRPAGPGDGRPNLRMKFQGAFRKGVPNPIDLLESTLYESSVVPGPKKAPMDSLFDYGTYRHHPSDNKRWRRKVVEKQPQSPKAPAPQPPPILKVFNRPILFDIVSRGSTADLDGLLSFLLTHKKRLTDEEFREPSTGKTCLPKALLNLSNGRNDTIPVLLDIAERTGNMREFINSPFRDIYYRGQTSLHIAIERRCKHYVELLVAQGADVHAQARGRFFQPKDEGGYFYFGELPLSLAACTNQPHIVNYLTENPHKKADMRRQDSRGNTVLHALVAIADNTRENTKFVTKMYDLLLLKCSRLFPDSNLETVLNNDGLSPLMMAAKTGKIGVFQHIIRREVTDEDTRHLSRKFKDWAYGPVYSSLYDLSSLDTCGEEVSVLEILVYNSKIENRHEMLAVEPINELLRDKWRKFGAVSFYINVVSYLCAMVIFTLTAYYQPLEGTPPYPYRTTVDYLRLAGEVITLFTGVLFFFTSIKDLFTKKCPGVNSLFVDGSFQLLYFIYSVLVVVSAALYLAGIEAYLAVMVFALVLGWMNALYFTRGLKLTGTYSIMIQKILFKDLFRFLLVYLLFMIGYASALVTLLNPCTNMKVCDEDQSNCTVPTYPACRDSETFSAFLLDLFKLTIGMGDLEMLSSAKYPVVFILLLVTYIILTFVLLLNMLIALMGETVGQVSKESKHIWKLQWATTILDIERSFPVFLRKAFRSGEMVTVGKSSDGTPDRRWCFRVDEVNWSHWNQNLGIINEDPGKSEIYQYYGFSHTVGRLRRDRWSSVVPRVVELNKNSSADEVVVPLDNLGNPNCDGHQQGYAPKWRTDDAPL

[3] = target: Short transient receptor potential channel 7 (Mus musculus, UniProt Q9WVC5); assay: Inhibition of YFP-tagged mouse TRPC7 expressed in thapsigargin treated HEK293 cells assessed as reduction in amix-induced calcium level by fluo-4 dye based fluorescence assay
Chain of Short transient receptor potential channel 7 (Mus musculus, UniProt Q9WVC5) (Q9WVC5 whole entry): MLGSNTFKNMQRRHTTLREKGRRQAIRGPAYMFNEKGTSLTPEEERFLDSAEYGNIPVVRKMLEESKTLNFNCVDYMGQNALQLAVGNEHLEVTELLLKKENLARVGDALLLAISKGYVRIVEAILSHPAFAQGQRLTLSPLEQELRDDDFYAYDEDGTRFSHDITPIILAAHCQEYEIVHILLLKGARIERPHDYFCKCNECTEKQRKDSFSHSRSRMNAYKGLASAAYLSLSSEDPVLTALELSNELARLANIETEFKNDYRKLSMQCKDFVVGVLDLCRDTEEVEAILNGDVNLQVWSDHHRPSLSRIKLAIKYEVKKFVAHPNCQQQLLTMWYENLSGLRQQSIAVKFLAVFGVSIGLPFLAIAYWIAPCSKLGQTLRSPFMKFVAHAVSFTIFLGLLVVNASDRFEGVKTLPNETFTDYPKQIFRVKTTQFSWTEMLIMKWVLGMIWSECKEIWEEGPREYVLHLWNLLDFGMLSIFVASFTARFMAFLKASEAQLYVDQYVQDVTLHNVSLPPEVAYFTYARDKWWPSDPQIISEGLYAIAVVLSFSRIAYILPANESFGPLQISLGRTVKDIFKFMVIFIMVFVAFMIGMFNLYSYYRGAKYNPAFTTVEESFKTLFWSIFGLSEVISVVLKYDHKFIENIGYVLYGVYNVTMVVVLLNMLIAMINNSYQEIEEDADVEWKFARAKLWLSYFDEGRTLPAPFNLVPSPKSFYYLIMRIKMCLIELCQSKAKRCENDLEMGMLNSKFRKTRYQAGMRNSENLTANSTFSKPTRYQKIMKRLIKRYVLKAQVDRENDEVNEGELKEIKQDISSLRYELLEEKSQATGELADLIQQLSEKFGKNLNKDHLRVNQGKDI

[4] = target: T2, Short transient receptor potential channel 3 (Homo sapiens, UniProt Q13507); assay: Inhibition of human TRPC3 expressed in CHO cells assessed as reduction in OAG-induced calcium influx after 10 mins by fluo-4/AM dye based FLIPR assay
T2 sequence (Q13507 whole entry): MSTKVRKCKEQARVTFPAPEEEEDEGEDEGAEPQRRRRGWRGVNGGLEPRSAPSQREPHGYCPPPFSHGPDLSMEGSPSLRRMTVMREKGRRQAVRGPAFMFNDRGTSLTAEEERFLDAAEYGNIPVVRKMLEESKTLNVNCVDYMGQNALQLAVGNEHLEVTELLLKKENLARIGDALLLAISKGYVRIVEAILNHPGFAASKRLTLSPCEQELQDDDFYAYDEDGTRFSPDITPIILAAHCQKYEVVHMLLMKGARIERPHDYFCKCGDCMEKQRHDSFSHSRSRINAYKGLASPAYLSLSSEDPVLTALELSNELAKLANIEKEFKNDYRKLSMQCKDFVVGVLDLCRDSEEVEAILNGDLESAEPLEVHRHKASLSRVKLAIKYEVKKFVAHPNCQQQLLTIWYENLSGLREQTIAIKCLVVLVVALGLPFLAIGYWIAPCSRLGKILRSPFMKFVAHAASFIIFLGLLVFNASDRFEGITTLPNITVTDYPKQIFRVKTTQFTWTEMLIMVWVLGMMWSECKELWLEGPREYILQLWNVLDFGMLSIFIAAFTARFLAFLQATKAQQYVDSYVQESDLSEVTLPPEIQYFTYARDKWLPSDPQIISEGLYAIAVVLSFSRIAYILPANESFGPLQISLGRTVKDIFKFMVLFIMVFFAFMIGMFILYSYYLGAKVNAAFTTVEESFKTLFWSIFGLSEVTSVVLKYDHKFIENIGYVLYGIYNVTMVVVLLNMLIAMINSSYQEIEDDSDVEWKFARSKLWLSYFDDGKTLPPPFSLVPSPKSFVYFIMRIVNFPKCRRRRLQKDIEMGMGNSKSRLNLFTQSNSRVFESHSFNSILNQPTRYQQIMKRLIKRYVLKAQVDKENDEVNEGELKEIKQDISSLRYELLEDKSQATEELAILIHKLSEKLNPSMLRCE

[5] = target: Short transient receptor potential channel 7 (Homo sapiens, UniProt Q9HCX4); assay: Inhibition of human TRPC7 expressed in HEK293 cells assessed as reduction in OAG-induced calcium influx after 10 mins by fluo-4/AM dye based FLIPR assay
Chain of Short transient receptor potential channel 7 (Homo sapiens, UniProt Q9HCX4) (Q9HCX4 whole entry): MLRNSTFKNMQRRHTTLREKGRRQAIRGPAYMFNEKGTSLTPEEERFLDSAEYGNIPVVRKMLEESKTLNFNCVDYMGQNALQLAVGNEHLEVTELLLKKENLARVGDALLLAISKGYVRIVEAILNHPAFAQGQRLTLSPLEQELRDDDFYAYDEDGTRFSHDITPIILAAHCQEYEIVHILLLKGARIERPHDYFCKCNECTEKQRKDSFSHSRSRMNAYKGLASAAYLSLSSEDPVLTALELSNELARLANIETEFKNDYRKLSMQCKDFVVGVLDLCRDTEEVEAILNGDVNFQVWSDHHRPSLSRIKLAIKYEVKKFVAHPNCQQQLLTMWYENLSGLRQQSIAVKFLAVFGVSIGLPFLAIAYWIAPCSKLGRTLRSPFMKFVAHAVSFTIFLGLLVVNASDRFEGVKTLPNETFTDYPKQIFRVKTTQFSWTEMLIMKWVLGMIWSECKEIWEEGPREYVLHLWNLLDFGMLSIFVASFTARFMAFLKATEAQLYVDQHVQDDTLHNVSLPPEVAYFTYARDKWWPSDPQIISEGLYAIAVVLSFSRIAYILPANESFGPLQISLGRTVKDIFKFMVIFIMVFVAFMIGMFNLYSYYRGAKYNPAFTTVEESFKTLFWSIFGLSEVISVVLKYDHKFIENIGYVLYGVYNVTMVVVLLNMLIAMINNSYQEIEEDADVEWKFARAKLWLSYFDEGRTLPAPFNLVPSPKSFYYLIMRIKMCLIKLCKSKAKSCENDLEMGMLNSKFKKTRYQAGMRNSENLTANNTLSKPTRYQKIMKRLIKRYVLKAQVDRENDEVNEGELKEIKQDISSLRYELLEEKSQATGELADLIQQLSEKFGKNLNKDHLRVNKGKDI

## Clc1ccc(Cn2c(CN3CCCC3)nc3ccccc32)cc1 [CLEMIZOLE]
[1]
  IC50: 1100 nM
[2]
  IC50: > 20000 nM
[3]
  IC50: 26500 nM

## N#Cc1ccc(O[C@@H]2c3ccccc3C[C@H]2N2CCC[C@@H](N)C2)c(Cl)c1
[4]
  IC50: 282 nM
[5]
  IC50: 226 nM
